Data on 52 compounds can be found in PubChem BioAssay AID1996.

Structures are written as SMILES. Converted amounts (≈) assume the structure as drawn.

For this data set the following is noted: buffer; pH 7.4; 200.0 µM.
In the case of `C=CCNC(=O)COc1ccc(S(=O)(=O)N2CCCC2)cc1`, the solubility (kinetic) was greater than 48.7 µg/mL.
`NC(=O)NCC(c1ccccc1)C1CCCCC1` (configuration not stated) came in with a kinetic solubility of 33.4 µg/mL (≈ 136 µM).
In turn, `CCNC(=S)Nc1ccc(Cc2ccncc2)cc1` registered a solubility (kinetic) of 38.3 µg/mL (≈ 141 µM).
The figure for `Cc1nc(SCC(=O)O)c(C#N)c2c1CCCC2` is greater than 39.3 µg/mL.
The figure for `COc1cc2c(cc1OC)CN(C(=S)Nc1ccc(Cl)cc1)CC2` is less than 0.4 µg/mL; for `CN1C(=O)Cc2cc(S(=O)(=O)NCCc3ccccc3)ccc21` it is 39.1 µg/mL (≈ 118 µM); for `CCc1cccc(NC(=O)C2CCCN(c3cnccn3)C2)c1` (configuration not stated) it is greater than 46.6 µg/mL.
Then `C/C(CCC1CC(C)OC1=O)=N\NC(N)=S` (configuration not stated), with greater than 36.5 µg/mL; and `CCc1ccc(C(=O)Nc2ccc3c(c2)n(C)c(=O)n3C)cc1`, with 5.6 µg/mL (≈ 18.1 µM); and `O=[N+]([O-])c1ccccc1/C=C/CN1CCSCC1`, with 29.2 µg/mL (≈ 110 µM).
`COCCNC(=S)Nc1ccc([N+](=O)[O-])cc1C` yielded a kinetic solubility greater than 40.4 µg/mL.
Then `CCOc1ccccc1NC(=O)CNC(=O)Cc1ccccc1`, with 46.8 µg/mL (≈ 150 µM); and `O=C(CN1C(=O)COc2ccccc21)N1CCN(C2CCCCC2)CC1`, with 49.2 µg/mL (≈ 138 µM).
The figure for `O=S(=O)(/C=C/c1ccccc1)N1CCOCC1` is greater than 38 µg/mL; for `CCOC(=O)c1ccc(-n2c(CC)nc3ccccc3c2=O)cc1` it is 1.4 µg/mL (≈ 4.34 µM); for `Cc1cccc(C(=O)NCC(=O)N2CCCC2)c1` it is greater than 36.9 µg/mL.
The figure for `O=C1/C(=C/c2ccncc2)CCc2ccccc21` is 34.2 µg/mL (≈ 145 µM); for `O=C(COC(=O)c1cc(Br)ccc1Cl)NC1CCCC1` it is 5.6 µg/mL (≈ 15.5 µM).
`COc1ccc(NC(=O)C2CCN(C(=O)c3ccco3)CC2)c(OC)c1` displayed a solubility (kinetic) of 44.2 µg/mL (≈ 123 µM).
Then `NC(=O)c1ccc(NC(=O)CN2C(=O)NC3(CCCCCCC3)C2=O)cc1`, with greater than 55.9 µg/mL.
Then `O=c1cc(/N=C/c2coc3cc(Br)ccc3c2=O)[nH]c(=S)[nH]1`, with 3 µg/mL (≈ 7.93 µM); and `Cc1cc(C)cc(NC(=O)Cn2cc(C=O)c3ccccc32)c1`, with less than 0.3 µg/mL; and `Cc1ccc(N2C(=O)CSC2=S)cc1C`, with less than 0.5 µg/mL.
In turn, `CCOc1ccccc1NC(=O)Nc1ccncc1` came in with a kinetic solubility of 36.3 µg/mL (≈ 141 µM).
On to `N#CCc1ccc(OC(=O)c2cccnc2Cl)cc1`, for which the kinetic solubility is greater than 40.9 µg/mL.
Then `CCNc1c(NCC)c(=O)c1=O`, with 23.2 µg/mL (≈ 138 µM); and `O=S(=O)(Cc1ccccc1)Nc1ccccc1`, with greater than 37.1 µg/mL; and `C=CCn1c(SCC(=O)NC2(C)CCS(=O)(=O)C2)nc2ccccc21` (configuration not stated), with greater than 56.9 µg/mL.
Then `O=C(O)c1ccc(Nc2ccc(Cl)c(Cl)c2)c([N+](=O)[O-])c1`, with greater than 49.1 µg/mL.
The figure for `COc1ccccc1CN1CCN(Cc2nc(-c3ccccc3)no2)CC1` is 50.1 µg/mL (≈ 137 µM); for `CCOC(=O)c1cnc2[nH]c3ccccc3n2c1=O` it is 23 µg/mL (≈ 89.4 µM).
Consider `CC(Cl)C(=O)c1ccc2c(c1)CCN2C(=O)C1CC1` (configuration not stated), for which the solubility (kinetic) worked out at 9.6 µg/mL (≈ 34.6 µM).
The figure for `COCCCNC(=S)N(Cc1ccccc1)Cc1ccc(F)cc1` is 22.1 µg/mL (≈ 63.8 µM); for `O=C(Nc1ccccc1C(F)(F)F)c1ccccn1` it is 6.7 µg/mL (≈ 25.2 µM); for `Cc1cc(C)cc(OCC(=O)OCC(=O)Nc2cc(S(=O)(=O)N3CCOCC3)ccc2Cl)c1` it is 41.6 µg/mL (≈ 83.7 µM).
The figure for `CC(=O)N1CCN(C(=O)c2ccc(C(=O)c3ccccc3)cc2)CC1` is greater than 50.5 µg/mL; for `COc1ccc(OCC(O)CNC(=O)Nc2cc(F)ccc2C)cc1` (configuration not stated) it is 17.2 µg/mL (≈ 49.4 µM); for `COc1cccc(-c2cc(C(=O)NCC3CCCO3)on2)c1` (configuration not stated) it is greater than 45.3 µg/mL.
Then `O=C(Nc1ccccc1F)C1CCCC1`, with 23.4 µg/mL (≈ 113 µM); and `O=C(NC1CCCc2ccccc21)c1ccccn1` (configuration not stated), with 35.9 µg/mL (≈ 142 µM); and `O=c1[nH]c(=S)n(Cc2ccc(F)cc2)c(O)c1C=NCCCn1ccnc1`, with greater than 58.1 µg/mL.
In turn, `CCCCCCCNC(=O)c1cc(-c2ccncc2)nc2ccccc12` yielded a solubility (kinetic) of 0.8 µg/mL (≈ 2.3 µM).
The figure for `CC(C)(C)c1csc(NC(=O)c2cccnc2Cl)n1` is 40.4 µg/mL (≈ 137 µM); for `O=C(CSc1ncccn1)NCCC1=CCCCC1` it is greater than 41.6 µg/mL.
The figure for `COc1ccc(CC(=O)Oc2ccc(C#N)cc2)cc1` is greater than 40.1 µg/mL; for `Cn1c(=O)[nH]c(=O)c2c1[nH]c(=S)n2Cc1ccccc1` it is greater than 43.2 µg/mL.
Then `Clc1nn2cnnc2c2ccccc12`, with greater than 30.7 µg/mL.
In the case of `O=C1CC2(CCN(C(=O)c3ccc([N+](=O)[O-])cc3)CC2)Oc2ccccc21`, the solubility (kinetic) was found to be 3.2 µg/mL (≈ 8.73 µM).
With `CN(C(=O)CSc1ncn[nH]1)C1(C#N)CCCCC1`, the solubility (kinetic) was greater than 41.9 µg/mL.
In turn, `Cc1cc(C)c2c(N)c(C(=O)Nc3ccc([N+](=O)[O-])cc3)sc2n1` registered a kinetic solubility of less than 0.2 µg/mL.
Then `Cc1cc(NC(=O)c2cc(-c3cccc(OCC(C)C)c3)nc3ccccc23)no1`, with less than 0.3 µg/mL; and `COc1ccccc1NC(=O)COC(=O)C12CC3CC(CC(Br)(C3)C1)C2`, with 5.5 µg/mL (≈ 13 µM).

A word on the solubility (kinetic): it is solubility judged after dilution from a stock solution rather than from solid.
